Measurements as given in patent US10711004B2 (Genentech, Inc., priority 2018, dated 2020).
Read-outs that look alike come from different tables or passages of the source.

Target: human TRPA1 channel (Homo sapiens (Human), UniProt O75762)
Test: hTRPA1 CHO Ca2+ FLIPR Tetra assay, block of cinnamaldehyde induced calcium influx
Format: cell-based
Conditions: for TRPA1 IC50 compared with 3-azabicyclo[3.1.0]hexene linker and cyclobutylene linker analogues: bicyclo[3.1.0]hexene linker compounds versus same-substituent analogues (compounds 16, 191; 26, 1); for IC50: CHO cells expressing TRPA1, Hill coefficient fixed to 1.5
Outline: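 IC50 values come from fixed-Hill fits of inhibition of cinnamaldehyde-induced (about EC50 level) calcium influx measured by FLIPR Tetra. Before agonist, TRPA1-expressing CHO cells loaded with calcium indicator were exposed to compound for 10 or 90 min at room temperature in HEPES-buffered HBSS, pH 7.4, with 0.02% BSA.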

[1] = read-out: hTRPA1 IC50 (10 min), compounds incubated 10 minutes at room temperature before cinnamaldehyde agonist
[2] = read-out: hTRPA1 IC50 (90 min), compounds incubated 90 minutes at room temperature before cinnamaldehyde agonist

human TRPA1 channel, sequence (O75762 whole entry): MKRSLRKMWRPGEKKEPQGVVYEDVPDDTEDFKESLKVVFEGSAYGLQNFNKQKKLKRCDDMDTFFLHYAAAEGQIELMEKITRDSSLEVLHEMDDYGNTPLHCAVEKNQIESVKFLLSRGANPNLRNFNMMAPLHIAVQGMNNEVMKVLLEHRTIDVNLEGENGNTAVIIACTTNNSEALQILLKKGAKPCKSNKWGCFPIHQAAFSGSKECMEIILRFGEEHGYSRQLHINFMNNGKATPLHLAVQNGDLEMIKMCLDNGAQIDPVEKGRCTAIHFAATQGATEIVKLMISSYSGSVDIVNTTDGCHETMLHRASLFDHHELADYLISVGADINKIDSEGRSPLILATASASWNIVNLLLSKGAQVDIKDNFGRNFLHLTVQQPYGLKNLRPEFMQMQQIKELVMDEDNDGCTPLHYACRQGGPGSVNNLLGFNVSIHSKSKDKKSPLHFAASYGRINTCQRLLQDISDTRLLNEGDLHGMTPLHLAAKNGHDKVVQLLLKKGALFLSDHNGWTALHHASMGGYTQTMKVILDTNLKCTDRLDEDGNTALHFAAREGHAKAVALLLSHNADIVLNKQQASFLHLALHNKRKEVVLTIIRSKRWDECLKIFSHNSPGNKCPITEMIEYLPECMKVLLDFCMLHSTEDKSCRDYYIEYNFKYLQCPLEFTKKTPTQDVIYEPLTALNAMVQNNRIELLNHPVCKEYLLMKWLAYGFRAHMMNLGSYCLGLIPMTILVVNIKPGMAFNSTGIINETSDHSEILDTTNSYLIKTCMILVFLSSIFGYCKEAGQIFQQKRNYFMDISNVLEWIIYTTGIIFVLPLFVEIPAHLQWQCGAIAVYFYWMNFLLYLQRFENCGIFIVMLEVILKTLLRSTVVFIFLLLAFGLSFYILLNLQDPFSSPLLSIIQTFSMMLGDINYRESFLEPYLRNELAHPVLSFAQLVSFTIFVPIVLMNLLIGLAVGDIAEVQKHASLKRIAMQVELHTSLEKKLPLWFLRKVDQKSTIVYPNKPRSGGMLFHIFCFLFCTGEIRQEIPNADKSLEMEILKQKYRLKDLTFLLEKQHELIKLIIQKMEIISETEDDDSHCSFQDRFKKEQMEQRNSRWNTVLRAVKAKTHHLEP

With `Cn1cnc2ncn(Cc3nc([C@H]4[C@@H]5C=C(c6ccccc6)C[C@@H]54)no3)c(=O)c21` [Example Compound 225, 7-methyl-1-((3-((1S,5S,6R)-3-phenylbicyclo[3.1.0]hex-2-en-6-yl)-1,2,4-oxadiazol-5-yl)methyl)-1,7-dihydro-6H-purin-6-one] the “TRPA1 IC50 compared with 3-azabicyclo[3.1.0]hexene linker and cyclobutylene linker analogues” value was “improved TRPA1 IC50 values”, the IC50 [1] was 13.8 nM and the IC50 [2] was 1.7 nM.

For `Cn1cnc2ncn(Cc3nc([C@@H]4[C@H]5C=C(c6ccccc6)C[C@H]54)no3)c(=O)c21` [Example Compound 226, 7-methyl-1-((3-((1R,5R,6S)-3-phenylbicyclo[3.1.0]hex-2-en-6-yl)-1,2,4-oxadiazol-5-yl)methyl)-1,7-dihydro-6H-purin-6-one], the “TRPA1 IC50 compared with 3-azabicyclo[3.1.0]hexene linker and cyclobutylene linker analogues” value was “improved TRPA1 IC50 values”, the IC50 [1] was 21.6 nM and the IC50 [2] was 9.9 nM.

With `Cc1ccnc2ncn(Cc3nc([C@@H]4[C@H]5C=C(c6ccccc6)C[C@H]54)no3)c(=O)c12` [Example Compound 227, 5-methyl-3-((3-((1R,5R,6S)-3-phenylbicyclo[3.1.0]hex-2-en-6-yl)-1,2,4-oxadiazol-5-yl)methyl)pyrido[2,3-d]pyrimidin-4(3H)-one] the IC50 [1] was 14 nM.

Compound `Cn1cnc2ncn(Cc3nc([C@H]4[C@@H]5CN(c6ccccn6)C[C@@H]54)no3)c(=O)c21` [Example Compound 228, 7-methyl-1-((3-((1R,5S,6r)-3-(pyridin-2-yl)-3-azabicyclo[3.1.0]hexan-6-yl)-1,2,4-oxadiazol-5-yl)methyl)-1,7-dihydro-6H-purin-6-one] has an IC50 [1] of 223 nM and an IC50 [2] of 130 nM.

In the case of `Cn1cnc2ncn(Cc3nc([C@H]4[C@@H]5CN(c6ccc(Cl)c(F)c6)C[C@@H]54)no3)c(=O)c21` [Example Compound 229, 1-((3-((1R,5S,6r)-3-(4-chloro-3-fluorophenyl)-3-azabicyclo[3.1.0]hexan-6-yl)-1,2,4-oxadiazol-5-yl)methyl)-7-methyl-1,7-dihydro-6H-purin-6-one], the IC50 [1] is reported as 21.7 nM and the IC50 [2] is reported as 10 nM.

Work on `O=c1c2ccncc2ncn1Cc1nc([C@H]2[C@@H]3CN(c4cccc(Cl)c4)C[C@@H]32)no1` [Example Compound 230, 3-((3-((1R,5S,6r)-3-(3-chlorophenyl)-3-azabicyclo[3.1.0]hexan-6-yl)-1,2,4-oxadiazol-5-yl)methyl)pyrido[3,4-d]pyrimidin-4(3H)-one] yielded an IC50 [1] of 33.1 nM.

`Cn1cnc2ncn(Cc3nc([C@H]4C[C@H](c5ccc6ccccc6c5)C4)no3)c(=O)c21` [Example Compound 231, 7-methyl-1-((3-((1r,3r)-3-(naphthalen-2-yl)cyclobutyl)-1,2,4-oxadiazol-5-yl)methyl)-1,7-dihydro-6H-purin-6-one] gave an IC50 [1] of 57.3 nM.

Compound `Cc1cncc2ncn(Cc3nc([C@H]4C[C@](O)(c5ccc6ccccc6c5)C4)no3)c(=O)c12` [Example Compound 232, 3-((3-((1s,3s)-3-hydroxy-3-(naphthalen-2-yl)cyclobutyl)-1,2,4-oxadiazol-5-yl)methyl)-5-methylpyrido[3,4-d]pyrimidin-4(3H)-one] has an IC50 [2] of 4.8 nM.

`Cc1ccnc2ncn(Cc3nc([C@H]4C[C@](O)(c5ccc6ccccc6c5)C4)no3)c(=O)c12` [Example Compound 233, 3-((3-((1s,3s)-3-hydroxy-3-(naphthalen-2-yl)cyclobutyl)-1,2,4-oxadiazol-5-yl)methyl)-5-methylpyrido[2,3-d]pyrimidin-4(3H)-one] showed an IC50 [1] of 38.6 nM.

`Cn1cnc2ncn(Cc3nc([C@H]4[C@@H]5CN(c6cccc(-c7ccccc7)c6)C[C@@H]54)no3)c(=O)c21` [Example Compound 234, 1-((3-((1R,5S,6r)-3-([1,1′-biphenyl]-3-yl)-3-azabicyclo[3.1.0]hexan-6-yl)-1,2,4-oxadiazol-5-yl)methyl)-7-methyl-1,7-dihydro-6H-purin-6-one] showed an IC50 [1] of 340 nM.

`Cn1cnc2ncn(Cc3nc([C@H]4[C@@H]5CN(c6cccc(C#N)c6)C[C@@H]54)no3)c(=O)c21` [Example Compound 235, 3-((1R,5S,6r)-6-(5-((7-methyl-6-oxo-6,7-dihydro-1H-purin-1-yl)methyl)-1,2,4-oxadiazol-3-yl)-3-azabicyclo[3.1.0]hexan-3-yl)benzonitrile] showed an IC50 [1] of 73.5 nM and an IC50 [2] of 17 nM.

`Cn1cnc2ncn(Cc3nc([C@H]4[C@@H]5CN(c6cccc(Cl)c6F)C[C@@H]54)no3)c(=O)c21` [Example Compound 236, 1-((3-((1R,5S,6r)-3-(3-chloro-2-fluorophenyl)-3-azabicyclo[3.1.0]hexan-6-yl)-1,2,4-oxadiazol-5-yl)methyl)-7-methyl-1,7-dihydro-6H-purin-6-one] was tested, and the IC50 [1] was 21.3 nM and the IC50 [2] was 4.4 nM.

Compound `Cn1cnc2ncn(Cc3nc([C@H]4[C@@H]5CN(c6ccc7sncc7c6)C[C@@H]54)no3)c(=O)c21` [Example Compound 237, 1-((3-((1R,5S,6r)-3-(benzo[d]isothiazol-5-yl)-3-azabicyclo[3.1.0]hexan-6-yl)-1,2,4-oxadiazol-5-yl)methyl)-7-methyl-1,7-dihydro-6H-purin-6-one] has an IC50 [1] of 18.2 nM and an IC50 [2] of 2.1 nM.

Work on `Cc1cc(N)nc2ncn(Cc3nc([C@H]4[C@@H]5C=C(c6ccccc6)C[C@@H]54)no3)c(=O)c12` [Example Compound 238, 7-amino-5-methyl-3-[[3-[(1S,5S,6R)-3-phenyl-6-bicyclo[3.1.0]hex-2-enyl]-1,2,4-oxadiazol-5-yl]methyl]pyrido[2,3-d]pyrimidin-4-one] yielded an IC50 [1] of 11.3 nM and an IC50 [2] of 1.5 nM.

`Nc1ccc2c(=O)n(Cc3nc([C@H]4[C@@H]5C=C(c6ccccc6)C[C@@H]54)no3)cnc2n1` [Example Compound 239, 7-amino-3-[[3-[(1S,5S,6R)-3-phenyl-6-bicyclo[3.1.0]hex-2-enyl]-1,2,4-oxadiazol-5-yl]methyl]pyrido[2,3-d]pyrimidin-4-one] was tested, and the IC50 [1] was 10.5 nM and the IC50 [2] was 5.3 nM.

`Cn1cnc2ncn(Cc3nc([C@@H]4[C@H]5CC[C@H](Oc6ccccc6)[C@H]54)no3)c(=O)c21` [Example Compound 240, 7-methyl-1-[[3-[(1R,2S,5R,6R)-2-phenoxy-6-bicyclo[3.1.0]hexanyl]-1,2,4-oxadiazol-5-yl]methyl]purin-6-one] was tested, and the IC50 [1] was 254 nM and the IC50 [2] was 80 nM.

For `CC(=O)Nc1nc2ncn(Cc3nc([C@H]4[C@@H]5C=C(c6ccccc6)C[C@@H]54)no3)c(=O)c2n1C` [Example Compound 241, N-[7-methyl-6-oxo-1-[[3-[(1S,5S,6R)-3-phenyl-6-bicyclo[3.1.0]hex-2-enyl]-1,2,4-oxadiazol-5-yl]methyl]purin-8-yl]acetamide], the IC50 [1] was 66.9 nM and the IC50 [2] was 18 nM.

Work on `Cn1cnc2ncn(Cc3nc([C@@H]4[C@H]5C=C(c6ccc(F)c(F)c6F)C[C@H]54)no3)c(=O)c21` [Example Compound 242, 7-methyl-1-[[3-[(1R,5R,6S)-3-(2,3,4-trifluorophenyl)-6-bicyclo[3.1.0]hex-2-enyl]-1,2,4-oxadiazol-5-yl]methyl]purin-6-one] yielded an IC50 [1] of 19.1 nM and an IC50 [2] of 6.3 nM.

Compound `Cn1c(NC2COC2)nc2ncn(Cc3nc([C@H]4[C@@H]5C=C(c6ccccc6)C[C@@H]54)no3)c(=O)c21` [Example Compound 243, 7-methyl-8-(oxetan-3-ylamino)-1-[[3-[(1S,5S,6R)-3-phenyl-6-bicyclo[3.1.0]hex-2-enyl]-1,2,4-oxadiazol-5-yl]methyl]purin-6-one] has an IC50 [1] of 101 nM and an IC50 [2] of 45 nM.

In the case of `CN(C)C(=O)CNc1nc2ncn(Cc3nc([C@H]4[C@@H]5C=C(c6ccccc6)C[C@@H]54)no3)c(=O)c2n1C` [Example Compound 244, N,N-dimethyl-2-[[7-methyl-6-oxo-1-[[3-[(1S,5S,6R)-3-phenyl-6-bicyclo[3.1.0]hex-2-enyl]-1,2,4-oxadiazol-5-yl]methyl]purin-8-yl]amino]acetamide], the IC50 [1] is reported as 68.7 nM and the IC50 [2] is reported as 26 nM.

For `Cn1c(NC2CCOCC2)nc2ncn(Cc3nc([C@H]4[C@@H]5C=C(c6ccccc6)C[C@@H]54)no3)c(=O)c21` [Example Compound 245, 7-methyl-1-[[3-[(1S,5S,6R)-3-phenyl-6-bicyclo[3.1.0]hex-2-enyl]-1,2,4-oxadiazol-5-yl]methyl]-8-(tetrahydropyran-4-ylamino)purin-6-one], the IC50 [1] was 79.9 nM and the IC50 [2] was 43 nM.

For `CCNc1nc2ncn(Cc3nc([C@H]4[C@@H]5C=C(c6ccccc6)C[C@@H]54)no3)c(=O)c2n1C` [Example Compound 246, 8-(ethylamino)-7-methyl-1-[[3-[(1S,5S,6R)-3-phenyl-6-bicyclo[3.1.0]hex-2-enyl]-1,2,4-oxadiazol-5-yl]methyl]purin-6-one], the IC50 [1] was 53.9 nM and the IC50 [2] was 29 nM.

`Cn1cnc2ncn(Cc3nc([C@H]4[C@@H]5CN(c6ccc(C#N)cc6F)C[C@@H]54)no3)c(=O)c21` [Example Compound 247, 3-fluoro-4-[(1S,5R)-6-[5-[(7-methyl-6-oxo-purin-1-yl)methyl]-1,2,4-oxadiazol-3-yl]-3-azabicyclo[3.1.0]hexan-3-yl]benzonitrile] was tested, and the IC50 [1] was 57.9 nM and the IC50 [2] was 23 nM.

Work on `Cn1cnc2ncn(Cc3nc([C@@H]4[C@H]5C=C(c6ccccc6)[C@@H](O)[C@H]54)no3)c(=O)c21` [Example Compound 250, 7-methyl-1-[[3-[(1R,4S,5R,6R)-4-hydroxy-3-phenyl-6-bicyclo[3.1.0]hex-2-enyl]-1,2,4-oxadiazol-5-yl]methyl]purin-6-one] yielded an IC50 [1] of 312 nM and an IC50 [2] of 40 nM.

Compound `Cn1cnc2ncn(Cc3nc([C@H]4[C@@H]5C=C(c6cc(F)c(F)c(F)c6)C[C@@H]54)no3)c(=O)c21` [Example Compound 251, 7-methyl-1-[[3-[(1S,5S,6R)-3-(3,4,5-trifluorophendyl)-6-bicyclo[3.1.0]hex-2-enyl]-1,2,4-oxadiazol-5-yl]methyl]purin-6-one] has an IC50 [1] of 14.9 nM and an IC50 [2] of 2 nM.
